Experimental findings from paper PMC5663395, “Chemical Validation of Methionyl-tRNA Synthetase as a Druggable Target in Leishmania donovani” (ACS Infectious Diseases, 2017) are described below.

In this assay the target is LdMetRS (Leishmania donovani, UniProt A0A3Q8IBX2). The assay can be described thus: LdMetRS biochemical enzyme assay (BIOMOL Green). The method, then: LdMetRS Assay Development and Kinetic Parameter Determinations
Activity of the LdMetRS enzyme was determined by monitoring levels of pyrophosphate released during the first step of the enzymatic reaction. The pyrophosphate formed was converted to two inorganic phosphate molecules using a pyrophosphatase enzyme and levels of the resulting phosphate molecules measured using the BIOMOL® Green reagent (Enzo Life Sciences) 2.
Following optimization of the assay buffer and determination of the enzyme linearity, 384-well plate based assays were carried out at room temperature in a 50 μl reaction volume containing 30 mM Tris, pH 8.0, 140 mM NaCl, 30 mM KCl, 40 mM MgCl2, 0.01% (v/v) Brij-35, 1 mM DTT, 1 U/ml pyrophosphatase, 50 nM recombinant LdMetRS, and varying concentrations of substrates. Michaelis constants for the ATP and methionine substrates were determined in an end point assay using the above buffer and enzyme conditions. Data were fitted to the modified Michaelis-Menten equations […]
Equation 1 (Hill equation): […]
Equation 2 (High substrate inhibition Michaelis-Menten equation): […]
LdMetRS Inhibitor Studies
All test compounds were solubilized in 100% DMSO to a concentration of 10 mM. To generate IC50 data for the compounds, assay ready plates containing 10-point inhibitor curves (half-log serial dilutions) were prepared using an Echo® 550 (Labcyte).
Following preparation of the inhibitor curves, assays were carried out at room temperature in clear, flat bottom, polystyrene, 384-well plates (Greiner). Each assay was performed in a 50 μl reaction volume containing 30 mM Tris; pH 8.0, 140 mM NaCl, 30 mM KCl, 40 mM MgCl2, 0.01% (v/v) Brij-35, 1 mM DTT, 1 U/ml pyrophosphatase, 50 nM recombinant LdMetRS, 50 µM methionine and 100 µM […]
Assays were performed by adding 25 μl buffer with enzyme to assay plates (with buffer only added to ‘no enzyme’ control wells) before the reaction was initiated with the addition of a 25 μl mix containing methionine, ATP and pyrophosphatase to all wells. Following a 120 min reaction at room temperature the assay was stopped with the addition of 50 μl BIOMOL® Green. The BIOMOL® Green signal was allowed to develop for 30 min before the absorbance of each well was read at 650 nm using an EnVision multilabel plate reader (PerkinElmer Life Sciences). All liquid dispensing steps were carried out using a Thermo Scientific WellMate dispenser (Matrix).
ActivityBase from IDBS (version 8.0.5.4) was used for data processing and analysis. All IC50 curve fitting was undertaken using ActivityBase XE (version 7.7.1) from IDBS. A four-parameter logistic dose-response curve was utilized with prefit used for all four parameters.
For DDD806905 Kiapp determinations, data fitting to the Morrison equation (equation 3) was carried out using GraFit v6.0 (Erithacus Software). It should be noted that data for fitting to the Morrison equation was normalised to a ‘100 µM DDD806905’ control rather than a ‘no enzyme’ control as […]
Equation 3 (Morrison equation): […]
vi = K1 −−([ ] [ ]ET+IT+Ki)−([ ] [ ]ET+IT+i)[ ] [ ]TIE4T
LdMetRS Mode of Inhibition Studies
To establish the mode of inhibition of DDD806905, data sets (generated using the BIOMOL® Green assay platform previously described) were collected by varying both the inhibitor and substrate concentrations. Using GraFit v6.0 (Erithacus Software) each data set was individually fitted to the Michaelis-Menten equation or the modified high substrate inhibition Michaelis-Menten equation described above (equation 2), and the resulting Lineweaver-Burk plots were examined for diagnostic […]
Data sets were then globally fitted to the appropriate model (with equations 4 and 5 used for […]
If more than one model appeared possible, then data were fitted to both and examined for significance using the F-test function in GraFit.

Chain of LdMetRS (A0A3Q8IBX2 entry or part of it): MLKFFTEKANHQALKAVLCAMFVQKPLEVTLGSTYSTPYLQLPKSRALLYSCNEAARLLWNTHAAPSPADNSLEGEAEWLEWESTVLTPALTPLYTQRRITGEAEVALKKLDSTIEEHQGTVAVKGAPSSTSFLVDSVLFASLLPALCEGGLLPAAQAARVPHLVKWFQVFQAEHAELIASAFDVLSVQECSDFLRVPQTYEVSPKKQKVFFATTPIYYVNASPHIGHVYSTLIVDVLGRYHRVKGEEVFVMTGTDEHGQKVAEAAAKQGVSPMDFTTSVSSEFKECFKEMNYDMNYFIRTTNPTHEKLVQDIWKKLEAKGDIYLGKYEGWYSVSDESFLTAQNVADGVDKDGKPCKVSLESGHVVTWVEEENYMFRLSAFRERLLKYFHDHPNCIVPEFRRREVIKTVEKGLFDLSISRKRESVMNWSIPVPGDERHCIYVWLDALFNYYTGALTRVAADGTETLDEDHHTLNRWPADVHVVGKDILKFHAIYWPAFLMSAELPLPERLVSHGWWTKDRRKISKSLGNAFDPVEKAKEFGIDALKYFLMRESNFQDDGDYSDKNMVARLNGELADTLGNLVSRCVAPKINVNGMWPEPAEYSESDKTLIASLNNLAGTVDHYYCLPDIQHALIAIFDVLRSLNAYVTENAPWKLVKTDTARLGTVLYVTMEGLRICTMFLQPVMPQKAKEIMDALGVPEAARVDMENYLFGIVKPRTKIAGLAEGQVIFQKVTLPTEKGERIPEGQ

The term IC50 denotes the midpoint of a concentration-inhibition curve. Lower therefore signals greater potency. For the molecule `Cl.Cl.O=c1nc(NCCCNCc2cc3c(Cl)cc(Cl)cc3[nH]2)[nH]c2ccccc12` [DDD806905, 2-((3-(((4,6-dichloro-1H-indol-2-yl)methyl)amino)propyl)amino)quinazolin-4(1H)-one dihydrochloride], the “mode of inhibition with respect to ATP” value is “mixed inhibition” and the “mode of inhibition with respect to methionine” value was “competitive inhibition”. The Ki (Ki app (Morrison equation), active enzyme concentration 39 nM as constant) came to 41 nM. This molecule showed a Ki (Ki, competitive inhibition with respect to methionine, global competitive inhibition model, Ki ± SE) of 18 nM. For the setting “Ki, mixed inhibition with respect to ATP, mixed inhibition model, Ki ± SE”, this molecule returned a Ki of 21 nM. The molecule further showed an IC50 (LdMetRS IC50 (μM), Table 1) of 0.09 µM. The IC50 (LdMetRS IC50, 50 nM LdMetRS, 50 μM methionine, 100 μM ATP) stood at 0.094 µM. In addition, the IC50 (LdMetRS IC50, Fig S5A: methionine 50 µM, ATP 500 µM) is 0.11 µM. The molecule also registered an IC50 (LdMetRS IC50, Fig S5A: methionine 500 µM, ATP 500 µM) of 0.433 µM. In addition, for the setting “LdMetRS IC50, Fig S5B: ATP 50 µM, methionine 500 µM”, half-maximal inhibition (IC50) was put at 0.098 µM. Further, the IC50 (LdMetRS IC50, Fig S5B: ATP 500 µM, methionine 500 µM) was 0.38 µM. The IC50 (LdMetRS IC50, Fig S5C: methionine and ATP both 50 µM) worked out at 0.037 µM. In addition, the IC50 (LdMetRS IC50, Fig S5C: methionine and ATP both 500 µM) came to 0.433 µM. The “Ki′ (ATP mode of inhibition study)” value (mixed inhibition model, ATP as variable substrate) was found to be 227 ± 23 nM.
